Measured values: US20100210692A1, “METHODS OF TREATMENT USING SIRT MODULATORS AND COMPOSITIONS CONTAINING SIRT1 MODULATORS” (priority 2007, published 2010)
pIC50: −log10 of the molar value. “Also recorded” adds a separate entry of the source.

Legend:
[1] = tested on: Fibroblasts that ectopically express PPARγ; assay: qPCR of FGF21 mRNA in fibroblasts that ectopically express PPARγ (Example 4); format: cell-based; details: 5 μM compound with 5 μM troglitazone, day 4 to 6
Experimental: Cells were harvested on day 6 for qPCR measurement of FGF21 mRNA. Three separate dishes of cells were analyzed for each condition.

SIRT1 [2] = molecular target: T1, SIRT1 (Homo sapiens, UniProt Q96EB6); assay: SIRT1 p53-382 IC50 assay (Table 1); format: biochemical
T1 sequence (Q96EB6 1-747): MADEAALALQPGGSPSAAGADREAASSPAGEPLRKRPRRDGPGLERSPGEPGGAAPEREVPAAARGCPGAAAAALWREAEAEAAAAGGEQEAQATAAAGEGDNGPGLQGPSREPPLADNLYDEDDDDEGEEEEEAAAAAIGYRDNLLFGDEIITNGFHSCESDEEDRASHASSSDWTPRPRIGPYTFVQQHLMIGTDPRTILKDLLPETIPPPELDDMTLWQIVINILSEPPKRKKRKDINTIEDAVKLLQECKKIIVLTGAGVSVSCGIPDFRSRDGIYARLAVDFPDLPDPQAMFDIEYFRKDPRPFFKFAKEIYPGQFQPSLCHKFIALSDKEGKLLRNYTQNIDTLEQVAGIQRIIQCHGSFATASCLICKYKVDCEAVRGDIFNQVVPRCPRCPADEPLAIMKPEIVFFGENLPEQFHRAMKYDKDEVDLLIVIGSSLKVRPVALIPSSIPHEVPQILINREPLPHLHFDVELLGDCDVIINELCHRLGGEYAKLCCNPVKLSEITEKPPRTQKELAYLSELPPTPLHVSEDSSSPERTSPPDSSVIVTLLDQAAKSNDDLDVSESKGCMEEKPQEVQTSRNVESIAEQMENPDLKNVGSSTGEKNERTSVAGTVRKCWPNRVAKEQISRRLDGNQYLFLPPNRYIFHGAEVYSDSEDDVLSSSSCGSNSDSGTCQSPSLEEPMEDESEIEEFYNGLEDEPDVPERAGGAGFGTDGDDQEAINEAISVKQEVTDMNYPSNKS

SIRT1 [3] = molecular target: T1, SIRT1; assay: Activity of enantiomers against the SIRT1 enzyme; format: biochemical; details: comparison of enantiomers
[4] = tested on: Swiss 3T3 fibroblasts expressing wild type PPARγ; assay: RT-PCR of mRNAs in Swiss 3T3 fibroblasts expressing wild type PPARγ (FIG. 5); format: cell-based, mouse; details: troglitazone 5 μM or T0070907 10 μM with differentiation cocktail, day 6
3T3-L1 adipocytes [5] = assay: Western blot of adiponectin secretion and intracellular proteins in 3T3-L1 adipocytes; format: cell-based, Murine; details: for secretion of the HMW adiponectin complexes: non-reducing SDS-PAGE
Experimental: Cell Culture: Murine 3T3-L1 preadipocytes were cultured and maintained in DMEM supplemented with […]. Differentiation was induced by exposure of postconfluent cells to DMEM containing 10% […], 1 μM dexamethasone (DEX), 0.5 mM 3-isobutyl-1-methylxanthine (MIX) and […] insulin. After 48 hours, the medium was changed to DMEM containing 10% FBS every two days. Human embryonic kidney (HEK)-293T cells were cultured in DMEM with 10% FBS; The Swiss F-PPARγ cells were differentiated as recently described (Wang et al, 2006; accompanying paper).
Western Blot Analysis of Proteins: Isolation and western blot analysis of total cell proteins was performed as outlined previously (21). The antibodies employed in the analysis were as follows: Mouse polyclonal anti-adiponectin antibody (Affinity BioREagents, Golden, Colo.), polyclonal anti-SIRT1 antibody (Upstate), anti-PPARγ and anti-C/EBPα (Santa Cruz Biotechnology), anti-Ero1 polyclonal antibody (Abnova Co., Taiwan, China) and polyclonal anti-aP2 serum (Dr. David Benlohr at University of Minnesota). For analysis of secreted proteins, aliquots of the culture medium were centrifuged at low speed to remove debris and then subjected to standard SDS-PAGE as above or non-reducing SDS-PAGE as outlined by Kadowaki and collaborators (37). Prior to electrophoresis, the samples were mixed with 4× non-reducing protein sample buffer (200 mM, […], 8% SDS, 0.4% bromophenot blue, 40% glycerol) and incubated at room temperature for one hour. Care was taken to ensure that all components of the SDs PAGE system were completely free of reducing agents.

Swiss WT-PPARγ cells = assay: RT-PCR of Group 1 and Group 2 genes in Swiss WT-PPARγ cells; format: cell-based, mouse; details: for expression of C/EBPα and adiponectin in response to endogenous ligands (FIG. 14B) / expression of the Group 2 genes in response to endogenous ligands (FIG. 14B): antagonist 10 μM, day 5
Experimental: (§1) Cells were then harvested for extraction of RNA followed by RT-PCR analysis of FGF21 and FABP4/aP2 mRNAs as described in materials and methods. (B). […] (C). Reporter assays were also performed in Swiss fibroblasts stably expressing a WT-PPARγ or a pBabe-puro empty vector (control cells) following transfection of the FGF21 promoter reporter plasmids along with the renilla control vector in the presence or absence of GW1929. In both assays (B) and (C), a set of cells were also transfected with a reporter plasmid consisting of the PPRE from the aP2 gene upstream of luciferase within pGL3 (DR-1). Transcriptional activity of each of the fragments of the FGF21 gene promoter is shown as the ratio of luciferase to renilla activity (Luc/Ren) as described in materials and methods.
(§2) Cells were refed every 2 days.

[6] = tested on: mouse FGF21 promotor constructs; assay: FGF21 promoter luciferase reporter gene assay in Swiss fibroblasts; format: cell-based; details: 1 μM GW1929, 48 hours
Experimental: as §1

Swiss EF-PPARγ cells = assay: RT-PCR of Group 1 and Group 2 genes in Swiss EF-PPARγ / F-PPARγ cells
Experimental: In (A), (B) and (C), total RNA of cells was isolated at day 5 using Trizol Reagent (Invitrogen) and subjected to RT-PCR analysis of the indicated Group 1 and Group 2 genes as described in materials and methods.
Cell Culture: The Swiss fibroblast cell lines expressing wild type (WT.) and mutant forms of PPARγ (E, EF, F, DD) generated as previously described (22) and murine 3T3-L1 preadipocytes were grown in Dulbecco's modified Eagle's medium (DMEM) containing 10% FBS (fibroblasts) or 10% calf serum (preadipocytes) until confluent and were then maintained in the same medium for an additional 2 days. […] Cells were refed every 2 days.
Analysis of RNA: Total cellular RNA was prepared using TRIzol reagent (InVitrogen) according to the manufacturer's instructions. As were made from equivalent amounts of total RNA by using Reverse Transcription System (Promega) as described previously (33).

[7] = tested on: Swiss F372A PPARγ cells (F-Ero1); assay: Adiponectin secretion in Swiss F372A PPARγ cells with ectopic Ero1-Lα (FIG. 9); format: cell-based, mouse; details: F-Ero1 cells + tetracycline, 50 μM resveratrol for 2 days from day 4
3T3-L1 adipocytes [8] = assay: RT-PCR of Group 1 and Group 2 genes in differentiating 3T3-L1 cells (FIG. 17); format: cell-based, murine; details: SIRT1 knockdown 3T3-L1 cells, day 4, 2 days exposure
Text: Untreated and treated cells were harvested for analysis of select mRNAs using RT-PCR as described in materials and methods. […] (C). Model proposing interplay between PPARγ and SIRT1 in controlling adipocyte function, PPARγ functions to regulate adipocyte formation and function. Endogenous ligands activate PPARγ requiring participation of both helix 7 and 12 to orchestrate adipogenesis. In mature adipocytes, SIRT1 mediates hormonal and nutrient control of select PPARγ target genes that are involved in controlling metabolism by suppressing the action of endogenous ligands. The thiazolidinedione (TZD) family of synthetic PPARγ ligands can overcome the suppressive effects of SIRT1 acting through helix 7 as well as helix 12 to induce the metabolic genes.
as §2

Ero1-Lα = assay: Transient knockdown of Ero1-Lα in 3T3-L1 adipocytes; format: cell-based, Murine; details: 100 nM RNAi duplex, transfected day 4 and 5, harvested day 6
Experimental: 3T3-L1 preadipocytes were cultured in 60 mm dishes and induced to differentiate as described above. On day 4, the differentiation-inducing medium was replaced with 2.5 mL, fresh DMEM containing 10% FBS. 15 μL TransIT-TKO Transfection Reagent (Mirus Bio Cooperadon. Madison, Wis.) was diluted into 250 μL serum free DMEM and incubated at room temperature for 20 minutes, at which time 100 nM Ero1-Lα RNAi duplex or control duplex […]) was added and mixed thoroughly. After incubation at room temperature for another 20 minutes, the resulting TranIT-TKO/RNAi mixture was gently mixed into the adipocyte cultures. The next day, the medium was changed to 2.5 mL flesh DMEM containing 10% FBS and the transfection was repeated as on day 4. On day 6, the total cellular proteins were harvested and subjected to Western blot analysis. The modified synthetic Ero1-Lα RNAi duplexes (Stealth™ siRNA) were from Invitrogen Life Technologies. The sequences are as follows:
Western Blot Analysis of Proteins: Isolation and western blot analysis of total cell proteins was performed as outlined previously (21). […]

[9] = control and SIRT1 knock down 3T3-L1 cells, T0070907 10 μM (FIG. 6D)
[10] = troglitazone 5 μM or T0070907 10 μM, 3 days
[11] = resveratrol 50 μM or nicotinamide 5 mM, 2 days
[12] = resveratrol 50 μM or nicotinamide 5 mM, 2 days, reducing SDS-PAGE

NC(=O)C1CCCCc2c1[nH]c1ccc(Cl)cc21 (racemic) [Compound E2]
FGF21 expression induced by troglitazone (FIG. 20) [1]: potentiate the activity of troglitazone in inducing FGF21 expression

Cc1ccc2[nH]c3c(c2c1)CCCC3C(N)=O (stereo not drawn) [Compound 4, 6-Methyl-2,3,4,9-tetrahydro-1H-carbazole-1-carboxylic acid amide]
pIC50 (SIRT1 [2]): > 6.00

NC(=O)C1CCCc2c1[nH]c1ccc(Cl)cc21 (stereo not drawn) [Compound E1]
activity against the SIRT1 enzyme (SIRT1 [3]): inactive isomer

NC(=O)C1CCCc2c1[nH]c1ccc(Cl)cc21 (stereo not drawn) [Compound E3]
activity against the SIRT1 enzyme (SIRT1 [3]): active isomer
FGF21 expression induced by troglitazone (FIG. 20) [1]: potentiate the activity of troglitazone in inducing FGF21 expression

O=C(Nc1ccncc1)c1cc([N+](=O)[O-])ccc1Cl [Compound T0070907]
Ero1-Lα mRNA expression [4]: attenuates Ero1-Lα expression
Ero1-Lα expression (3T3-L1 adipocytes [5]; [9]): inhibits Ero1-Lα expression
adiponectin secretion (3T3-L1 adipocytes [5]; [9]): suppresses adiponectin secretion
amount of secreted HMW adiponectin (3T3-L1 adipocytes [5]; [10]): has the opposite effect
secretion of adipsin (3T3-L1 adipocytes [5]; [10]): has the opposite effect
expression of C/EBPα and adiponectin in response to endogenous ligands (FIG. 14B) (Swiss WT-PPARγ cells): moderately attenuate
expression of the Group 2 genes in response to endogenous ligands (FIG. 14B) (Swiss WT-PPARγ cells): almost completely block expression of the Group 2 genes; also recorded: the most potent

CN(CCOc1ccc(C[C@H](Nc2ccccc2C(=O)c2ccccc2)C(=O)O)cc1)c1ccccn1 [GW1929]
transcriptional activity of the 500 bp fragment of the FGF21 gene ([6]; Swiss cells stably expressing WT-PPARγ): enhanced many fold
luciferase activity of FGF21 gene fragments (FIG. 15B) ([6]; Swiss fibroblasts co-transfected with PPARγ expression plasmid): enhanced even further
luciferase activity of FGF21 gene fragments (FIG. 15B) ([6]; control Swiss fibroblasts without PPARγ plasmid): has no affect on this activity
expression of select Group 1 genes (FIG. 14A) (Swiss EF-PPARγ cells): capable of inducing expression of the Group 2 genes as well as Group 1 genes

O=C(Nc1ccccc1)c1cc([N+](=O)[O-])ccc1Cl [GW9662]
expression of C/EBPα and adiponectin in response to endogenous ligands (FIG. 14B) (Swiss WT-PPARγ cells): moderately attenuate
expression of the Group 2 genes in response to endogenous ligands (FIG. 14B) (Swiss WT-PPARγ cells): almost completely block expression of the Group 2 genes

C[C@@H]1C[C@@H]([C@H](O)CC2CC(=O)NC(=O)C2)C(=O)[C@@H](C)C1 [cycloheximide]
FGF21 mRNA expression (FIG. 15A) (Swiss WT-PPARγ cells; day 5 cells, troglitazone 5 μM or cycloheximide 5 μg/ml for 4, 6 or 8 hrs): induced simply due to exposure to cycloheximide

O=C[C@H](O)[C@@H](O)[C@H](O)[C@H](O)CO [glucose]
secretion of HMW forms of adiponectin (3T3-L1 adipocytes [5]; glucose or 20 mM lactate, non-reducing SDS-PAGE without heat): significant increase in the appearance of the HMW species in the media
SIRT1 expression (3T3-L1 adipocytes [5]; increase in glucose concentration, 72 hrs): significant decrease of SIRT1 expression
amount of adiponectin secreted into the medium (Ext) (3T3-L1 adipocytes [5]; increasing concentrations of glucose, 72 hrs, reducing SDS-PAGE): dramatically increases the amount of adiponectin secreted into the medium

NC(=O)c1cccnc1 [nicotinamide]
secretion of adipsin (3T3-L1 adipocytes [5]; [11]): has no effect on adipsin
secretion of the HMW adiponectin complexes (3T3-L1 adipocytes [5]; [11]): enhances
secretion of adiponectin (Ext) (3T3-L1 adipocytes [5]; [12]): enhancing secretion of adiponectin

Oc1ccc(C=Cc2cc(O)cc(O)c2)cc1 [resveratrol]
secretion of adiponectin [7]: inhibits secretion of adiponectin
secretion of adipsin (3T3-L1 adipocytes [5]; [11]): without affecting secretion of adipsin
secretion of the HMW adiponectin complexes (3T3-L1 adipocytes [5]; [11]): decreases
secretion of adiponectin (Ext) (3T3-L1 adipocytes [5]; [12]): reduces the secretion of adiponectin

Cc1c(C)c2c(c(C)c1O)CCC(C)(COc1ccc(CC3SC(=O)NC3=O)cc1)O2 (stereo not drawn) [troglitazone]
dose of troglitazone inducing FGF21 and Egln1 (FIG. 17B) (3T3-L1 adipocytes [8]): 250 nM
doses of troglitazone inducing C/EBPα, adiponectin and FABP4/aP2 (FIG. 14C) (Swiss EF-PPARγ cells; EF-PPARγ cells, 5 days): 250 to 500 nM

OCCS [β-mercaptoethanol]
secretion of adiponectin (3T3-L1 adipocytes [5]; β-mercaptoethanol treatment, preliminary data, not shown): significantly enhances the secretion of adiponectin

GGGCUCUCUCCAAAGUGCUUCCAUU [siRNA #3]
attenuation of Ero1-Lα expression (Ero1-Lα): the most effective
